How the values were obtained:
Assay type in all cases: in vivo
amylase = test: Pancreatic amylase accumulation in rat small intestine, immunohistochemistry; conditions: old rats, oral, two weeks; increase in old vs young rats
Source text: (§1) Male Wistar rats (Harlan Sprague Dawley Inc., Indianapolis, IN) at maturity (4 months, 300 to 350 gm) and old age (24 months, 375 to 450 gm) were included in the study. The animals were maintained on standard laboratory chow (8604 Teklad rodent diet; Harlan Laboratories, Indianapolis, IN) without restriction and water ad libitum and maintained in separated room without pathogen-free conditions. […] A subgroup of old animals was given over two weeks a pancreatic serine protease (trypsin) inhibitor (tranexamic acid, 14 days) in drinking water (137 mM, exchanged daily) which at a minimum fluid consumption of 40 ml/day amounts to a minimum dose of 0.39 gm/kg/day for 350 gm body weight.
(§2) Small intestine: Full thickness tissue blocks of the wall of proximal jejunum (3 by 5 mm) were fixed from all sides in 10% formaldehyde. Pancreatic trypsin and amylase were detected with primary (MoAb (D-1) and MoAb (G-10), respectively), and secondary antibodies labeled with DAB (Peroxidase Substrate Kit, ab64238, ABCAM).
(§3) Images of the immunolabel density were recorded from low power overviews of the tissue (10× objective, numerical aperture 0.25) under standard light conditions. Images were digitally analyzed to minimize operator error (NIH Image, 1.61, public domain software, spatial resolution of 640×480 pixel). […]

[1] = tested on: mucin coat in the small intestine; test: Mucin coat in rat small intestine, alcian blue labeling; conditions: old rats (104 weeks), oral in drinking water, two weeks, vs old non-treated
Source text: as §1, with “weight. […]” for “weight.”
(§4) Images of the immunolabel density were recorded from low power overviews of the tissue (10× objective, numerical aperture 0.25) under standard light conditions. Images were digitally analyzed to minimize operator error (NIH Image, 1.61, public domain software, spatial resolution of 640×480 pixel).
The intensity of the immune substrate label was measured after color extraction in form of light intensity (1 corresponding to white, 256 corresponding to black). The mean label density per group (with 3 animals per group) was determined from the average label density per animal (determined from 5 tissue sections/animal, 30 images/section).

collagen = test: Rat skin tissue collagen fragmentation, collagen hybridizing peptide (B-CHP) labeling; conditions: old rats, two weeks
Source text: as §1, with “weight. […]” for “weight.”
Tissue sections were stained with B-CHP (stock solution, 150 mM; final applied solution 7.5. mM). […] The B-CHP label intensity on the sections was recorded by digital microscopy.
as §4
The intensity of the immune substrate label was measured after color extraction in form of light intensity (1 corresponding to white, 256 corresponding to black). […]

pancreatic trypsin [2] = test: Pancreatic trypsin accumulation in rat skin tissue, immunohistochemistry; conditions: old rats, two weeks
Source text: as §1, with “weight. […]” for “weight.”
To determine on the tissue sections the immunolabel density and distribution of pancreatic serine proteases, pancreatic trypsin MoAb (D-1): sc-137077(Santa Cruz) primary antibody was used, followed by secondary antibodies (MP-7601 for anti-rabbit IgG; MP-7602 for anti-mouse IgG; ImmPRESS Excel staining kit peroxidase). […] No counterstain was applied to facilitate quantitative label intensity measurements and since cellular and vascular structures are readily identified. […] All procedures were carried out under standardized conditions to permit quantitative comparison of label densities. […]

pancreatic trypsin [3] = test: Pancreatic trypsin accumulation in rat small intestine, immunohistochemistry; conditions: old rats, oral, two weeks; increase in old vs young rats
Source text: as §1, §2, §3

## NC[C@H]1CC[C@H](C(=O)O)CC1 [tranexamic acid]
amylase
  amylase label density in the small intestine: attenuated
[1]
  mucin coat in the small intestine (alcian blue label): restoration of the mucin coat
collagen
  collagen fragmentation in skin tissue (CHP): prevents collagen fragmentation
Pancreatic trypsin [2]
  pancreatic trypsin accumulation in skin tissue: prevents trypsin accumulation
Pancreatic trypsin [3]
  pancreatic trypsin label density in the small intestine: attenuated
